Measurements taken from paper PMC10376059, “New NADPH Oxidase 2 Inhibitors Display Potent Activity against Oxidative Stress by Targeting p22^phox-p47^phox Interactions” (Antioxidants, 2023).

Columns and labels:
[1] = system: cardiomyocytes isolated from mdx mice; test: NOX2-mediated ROS production (DCF-DA, confocal) in mdx cardiomyocytes; type: cell-based, mouse; conditions: 1 µM, vs control
Source text: Cardiomyocytes were isolated from mdx mice (C57BL/10ScSn-DMDmdx/J, stock number 001801M, Jackson Laboratories, Bar Harbor, […], USA). Male mdx mice of 19 months of age were used, which were housed in individual cages with water and food ad libitum. All the procedures were adjusted to the “Guide for the Care and Use of Laboratory Animals” (1996) of the National Institute of Health and were approved by the Institutional Committee for Animal Care and Use of the Universidad de Talca. Mice were pre-medicated with heparin i.p. (200U.) and then sacrificed by cervical dislocation. The heart was rapidly removed, cannulated through the aorta, and retrogradely perfused in a steady flow (2 mL/min) at 37 °C. The hearts were initially perfused for 10 min with a Ca^2+-free bicarbonate buffer solution containing (in mM) 120 NaCl; 5.4 KCl; 1.2 MgSO4; 1.2 NaH2PO4; 5.6 glucose; 20 NaHCO3; 10 BDM, and 5 taurine, bubbled with a 95% O2–5% CO2 mixture. Enzyme digestion was performed with collagenase type II (1 mg/mL; Worthington Biochemical Corp., Lakewood, NJ, USA) and protease type XIV (0.1 mg/mL; Sigma-Aldrich) as previously reported. Isolated cardiomyocytes were transferred to 1.5 mL Eppendorf tubes and preincubated with the heteroaryl acrylonitrile compounds.
Cardiomyocytes isolated from mdx mice were transferred to Eppendorf tubes to be incubated with 1 μM of the indole heteroaryl-acrylonitrile derivatives for 30 min, protected from light, at room temperature. VAS2870 (20 μM) was used as a positive control for NOX2 inhibition. 2′,7′-dichlorofluorescein diacetate (DCF-DA) (10 μM) was then added and incubated for 15 min. Subsequently, it was allowed to sediment by gravity to remove the supernatant, and the pellets obtained were in a phosphate saline solution (PBS). 200 μL of the cell suspension were placed on pre-treated polylysine slides (Thermo Fischer, USA) and fixed with 2% paraformaldehyde (Sigma-Aldrich®, St. Louis, MO, USA) for 10 min at 4 °C. […] From the acquired images, the fluorescence intensity was quantified at 495 nm, and the data were reported as fluorescence intensity per pixel.

NADPH oxidase (NOX2) = target: T1, NADPH oxidase (NOX2) (Homo sapiens, UniProt P14598); test: NADPH oxidase activity by lucigenin chemiluminescence in HL-60 membrane preparations; type: biochemical; conditions: PMA 0.8 µM, compound 50 µM, vs control
T1 construct: HL-60 cells expressed the components of NOX2, including gp91, p22^phox, p47^phox, and p67^phox; endogenous in cells; whole cells in A1, membrane preparations in A3 and A4
T1 sequence (P14598 1-390): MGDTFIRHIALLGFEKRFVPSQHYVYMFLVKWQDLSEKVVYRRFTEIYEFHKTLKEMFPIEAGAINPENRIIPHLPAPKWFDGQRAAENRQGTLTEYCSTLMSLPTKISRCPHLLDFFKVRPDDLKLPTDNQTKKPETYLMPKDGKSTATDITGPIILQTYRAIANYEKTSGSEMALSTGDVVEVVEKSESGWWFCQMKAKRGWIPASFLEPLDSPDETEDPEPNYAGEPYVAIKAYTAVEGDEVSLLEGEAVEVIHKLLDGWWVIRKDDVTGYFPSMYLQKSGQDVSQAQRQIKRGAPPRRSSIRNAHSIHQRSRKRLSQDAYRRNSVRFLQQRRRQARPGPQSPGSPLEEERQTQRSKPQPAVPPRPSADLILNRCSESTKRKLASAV
Method: Neutrophil-differentiated HL-60 cells (2 × 10^6 cells/mL) were incubated at 37 °C in a humid atmosphere with 5% CO2 and 50 μM of the different acrylonitrile compounds, then PMA 0.8 μM was added and incubated for 1 h to induce the activation of the enzyme NADPH oxidase. As a positive inhibition control, VAS2870 (20 μM) was used. Another two controls were performed: one with cells activated by PMA in the presence of DMSO, and the other (NA, non-activated) with cells in the absence of PMA and the acrylonitrile compounds. In 15 mL conical tubes, 5 mL of cell suspension from each treatment and control condition was transferred at 2 × 10^6 cells/mL and centrifuged at 1000 rpm at 4 °C for 10 min. The supernatant was then discarded, and each pellet was re-suspended in 2 mL of a 4% PBS solution with 2 mM EGTA and 0.25 mM PMSF frozen at −80 °C for 10 min. Then each pellet was thawed on ice. […]
The chemiluminescence analysis of lucigenin derivatives was used to determine the activity of NADPH oxidase in a suspension of membrane preparations of HL-60 cells. […] Chemiluminescence was measured for 1 h at 2 min intervals with a Synnergy H1 hybrid luminometer multi-mode microplate reader and GEN5 program (Biotek Instruments, Inc., Winooski, VT, USA). […] The activity was expressed as relative units of luminescence per second, relative to the control.

ROS production, lucigenin chemiluminescence (in words) (NADPH oxidase (NOX2)) | Compound | DCF fluorescence intensity, NOX2-derived ROS (in words) [1]
significantly reduce ROS production | N#C/C(=C\c1cc(-c2ccccc2)on1)C(=O)c1c[nH]c2ccccc12 [Compound C6] | significant decrease in fluorescence intensity
significantly reduce ROS production | N#C/C(=C\c1ccncc1)C(=O)c1c[nH]c2ccccc12 [Compound C14] | significant decrease in fluorescence intensity
